For series [1], the system named is fetal liver derived human mast cells. The experiment in a line: IgE/anti-IgE stimulated leukotriene C4 release, fetal liver derived human mast cells. The conditions noted are these: 100 μM, 30 min before anti-IgE challenge. The class given is cell-based. The method, then:
FIG. 27: Effect of LFM and LFM-A8 on IgE receptor/Fc epsilon RI-mediated human mast cell leukotriene C4 release. IgE sensitized fetal liver derived human mast cells were stimulated by challenging with anti-IgE. To study the effect of the test compounds, mast cells were incubated with vehicle or 100 μM LFM or LFM-A8 prior to challenge with anti-IgE. Leukotriene C4 levels were measured in cell-free supernatants by ELISA. Vehicle treated 10^6 mast cells released 12.5±2.2 ng leukotriene C4. The results are expressed as percent of vehicle-treated controls (N=4). The data points represent the mean±SEM values. *P<0.05 compared to vehicle-treated control, as determined by Student's t test.
Mast Cell Cultures. RBL-2H3 mast cells were a gift from Dr. Reuben P. Siraganian (Laboratory of Microbiology and Immunology, National Institute of Dental Research, National Institute of Health). […]
We next sought to determine the effect of LFM-A8 on IgE/FcεRI-mediated human mast cell leukotriene C4 release and compare its potency with that of LFM. […] The Fc[…] receptors of fetal liver-derived human mast cells were crosslinked with anti-IgE and the resulting mast cell leukotriene C4 release was quantitated by ELISA (Malaviya, R. and Abraham, S. N., (1995) Methods Enzymol, 253, 27-43).

For another series, the target named is JAK1 (Homo sapiens, UniProt P23458). In words: Cell-free tyrosine kinase inhibition assay JAK1. The class given is biochemical.
Sequence of JAK1 (P23458 whole entry, species assumed): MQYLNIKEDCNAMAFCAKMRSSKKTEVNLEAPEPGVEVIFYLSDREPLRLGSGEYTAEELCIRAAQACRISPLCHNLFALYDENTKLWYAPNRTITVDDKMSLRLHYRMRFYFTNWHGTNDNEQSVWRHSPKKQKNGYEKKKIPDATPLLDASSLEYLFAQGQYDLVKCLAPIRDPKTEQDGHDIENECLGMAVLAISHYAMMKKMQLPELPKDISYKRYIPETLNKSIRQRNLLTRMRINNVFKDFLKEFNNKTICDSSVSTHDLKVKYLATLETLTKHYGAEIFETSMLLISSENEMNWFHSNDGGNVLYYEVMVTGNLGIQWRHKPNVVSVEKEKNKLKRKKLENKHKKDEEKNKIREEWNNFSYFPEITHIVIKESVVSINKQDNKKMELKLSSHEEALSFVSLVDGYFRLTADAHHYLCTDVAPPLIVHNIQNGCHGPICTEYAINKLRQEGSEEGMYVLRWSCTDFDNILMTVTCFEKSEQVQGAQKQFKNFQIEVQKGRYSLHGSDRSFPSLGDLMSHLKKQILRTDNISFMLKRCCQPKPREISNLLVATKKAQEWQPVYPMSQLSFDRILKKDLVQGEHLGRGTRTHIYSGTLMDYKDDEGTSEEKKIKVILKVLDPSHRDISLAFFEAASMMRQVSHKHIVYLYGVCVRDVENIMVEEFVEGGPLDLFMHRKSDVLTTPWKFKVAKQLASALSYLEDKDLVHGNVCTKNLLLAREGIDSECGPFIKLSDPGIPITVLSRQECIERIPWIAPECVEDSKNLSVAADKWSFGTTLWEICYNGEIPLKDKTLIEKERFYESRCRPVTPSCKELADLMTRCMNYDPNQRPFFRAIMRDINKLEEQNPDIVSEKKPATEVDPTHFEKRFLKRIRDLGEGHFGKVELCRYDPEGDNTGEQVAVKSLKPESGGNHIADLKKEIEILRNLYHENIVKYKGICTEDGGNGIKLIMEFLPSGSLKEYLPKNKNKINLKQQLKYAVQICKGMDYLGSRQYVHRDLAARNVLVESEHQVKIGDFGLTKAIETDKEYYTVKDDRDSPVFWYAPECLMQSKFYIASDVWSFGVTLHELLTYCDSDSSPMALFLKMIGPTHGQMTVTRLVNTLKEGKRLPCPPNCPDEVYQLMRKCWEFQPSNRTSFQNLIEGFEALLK
Series [2] deals with EGF-Receptor Kinase (EGFR) (Homo sapiens, UniProt P00533). In words: Cell-free tyrosine kinase inhibition assay EGFR. It is filed as biochemical.
Sequence of EGF-Receptor Kinase (EGFR) (P00533 25-1210, species assumed): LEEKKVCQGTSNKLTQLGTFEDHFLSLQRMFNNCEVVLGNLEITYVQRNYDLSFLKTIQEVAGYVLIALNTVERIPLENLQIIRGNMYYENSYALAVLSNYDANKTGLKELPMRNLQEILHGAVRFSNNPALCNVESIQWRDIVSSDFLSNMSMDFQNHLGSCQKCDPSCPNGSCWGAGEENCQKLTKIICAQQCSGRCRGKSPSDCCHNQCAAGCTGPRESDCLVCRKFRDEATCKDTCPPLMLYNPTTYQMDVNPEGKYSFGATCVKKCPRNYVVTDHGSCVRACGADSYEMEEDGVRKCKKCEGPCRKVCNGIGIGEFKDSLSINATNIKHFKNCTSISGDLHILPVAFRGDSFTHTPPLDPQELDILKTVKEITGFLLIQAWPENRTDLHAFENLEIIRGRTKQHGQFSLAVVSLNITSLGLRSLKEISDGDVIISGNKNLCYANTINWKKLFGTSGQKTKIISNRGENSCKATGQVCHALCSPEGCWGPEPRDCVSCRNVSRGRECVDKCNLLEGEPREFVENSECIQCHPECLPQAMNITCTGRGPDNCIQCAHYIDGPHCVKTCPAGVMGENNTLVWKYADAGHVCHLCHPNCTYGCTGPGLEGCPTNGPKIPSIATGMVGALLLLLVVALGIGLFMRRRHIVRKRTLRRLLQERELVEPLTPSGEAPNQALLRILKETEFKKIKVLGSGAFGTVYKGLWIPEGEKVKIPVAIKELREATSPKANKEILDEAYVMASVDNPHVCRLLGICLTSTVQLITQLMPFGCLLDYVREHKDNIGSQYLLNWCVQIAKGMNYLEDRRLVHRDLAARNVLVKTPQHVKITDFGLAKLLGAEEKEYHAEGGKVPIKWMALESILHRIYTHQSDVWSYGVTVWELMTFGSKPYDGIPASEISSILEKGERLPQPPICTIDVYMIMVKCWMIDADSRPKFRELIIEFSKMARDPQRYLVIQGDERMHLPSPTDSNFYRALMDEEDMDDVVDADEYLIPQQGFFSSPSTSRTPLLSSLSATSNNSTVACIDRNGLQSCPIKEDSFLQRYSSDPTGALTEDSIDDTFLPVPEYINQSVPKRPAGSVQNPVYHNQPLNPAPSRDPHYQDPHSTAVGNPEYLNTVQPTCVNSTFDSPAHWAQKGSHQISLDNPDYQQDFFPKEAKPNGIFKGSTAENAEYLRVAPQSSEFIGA
Another series has as its target HCK (Homo sapiens, UniProt P08631). In words: Cell-free tyrosine kinase inhibition assay HCK from transfected COS-7 cells. The class given is biochemical.
In a further series the test system is ALL-1 cells. The experiment in a line: Ceramide-induced apoptosis, MC540/PI flow cytometry. The class given is cell-based, human. The conditions noted are these: 200 μM plus 10 μM C2-ceramide.
The target in another series is BTK in B18.2 cells (Homo sapiens, UniProt Q06187). The experiment in a line: Cellular BTK activity, immune complex kinase assay after treatment of cells. The conditions noted are these: treatment of B18.2 cells. It is filed as cell-based. The source says: PIU: Phosphoimager units; DSU, densitometric scanning units; CON, control.
Sequence of BTK in B18.2 cells (Q06187 whole entry, the tested form may be a part): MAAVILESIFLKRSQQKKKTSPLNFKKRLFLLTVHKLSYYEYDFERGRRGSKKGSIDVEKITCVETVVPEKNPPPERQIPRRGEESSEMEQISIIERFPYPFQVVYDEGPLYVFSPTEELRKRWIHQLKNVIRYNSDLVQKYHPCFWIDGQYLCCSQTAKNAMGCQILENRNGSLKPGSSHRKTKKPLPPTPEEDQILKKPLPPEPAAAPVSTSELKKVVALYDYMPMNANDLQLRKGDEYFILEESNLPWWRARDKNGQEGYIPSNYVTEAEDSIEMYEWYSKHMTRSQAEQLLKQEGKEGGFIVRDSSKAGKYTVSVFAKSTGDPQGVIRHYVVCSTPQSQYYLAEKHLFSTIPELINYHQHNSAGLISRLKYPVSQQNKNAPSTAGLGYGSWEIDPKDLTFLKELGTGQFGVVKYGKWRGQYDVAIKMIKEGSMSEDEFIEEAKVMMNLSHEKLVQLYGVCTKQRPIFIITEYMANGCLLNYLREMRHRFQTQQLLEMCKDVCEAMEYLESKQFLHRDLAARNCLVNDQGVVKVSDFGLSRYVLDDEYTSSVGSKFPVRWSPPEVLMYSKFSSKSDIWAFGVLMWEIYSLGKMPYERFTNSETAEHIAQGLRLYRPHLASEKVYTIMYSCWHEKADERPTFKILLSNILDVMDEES
Polyclonal antibodies to BTK were generated by immunization of rabbits with glutathione S-transferase (GST) fusion proteins (Pharmacia Biotech Inc.) containing the first 150 amino acids of BTK. The monoclonal anti-Fas antibody (F22120) was obtained from the Transduction Laboratories, Inc. (Lexington, Ky.). […] Following electrophoresis, kinase gels were dried onto Whatman 3M filter paper and subjected to phosphoimaging on a Molecular Imager (Bio-Rad, Hercules, Calif.) as well as autoradiography on film. Similarly, all chemiluminescent BTK Western blots were subjected to three dimesional densitometric scanning using the Molecular Imager and Imaging Densitometer using the Molecular Analyst/Macontosh version 2.1 software following the specifications of the manufacturer (Bio-Rad). For each drug concentration, a BTK kinase activity index was determined by comparing the ratios of the kinase activity in phosphorimager units (PIU) and density of the protein bands in densitometric scanning units (DSU) to those of the baseline sample and using the formula: Activity Index=[PIU of kinase band/DSU of BTK protein band]test sample: [PIU of kinase band/DSU of BTK protein band]baseline control sample. […]

Where [3] appears, read: concentrations as high as 100 μg/ml (~278 μM).

Structures are written as SMILES. Where only a bound is given, the exact number is not on record here.

Sequence of HCK (P08631 whole entry, species assumed): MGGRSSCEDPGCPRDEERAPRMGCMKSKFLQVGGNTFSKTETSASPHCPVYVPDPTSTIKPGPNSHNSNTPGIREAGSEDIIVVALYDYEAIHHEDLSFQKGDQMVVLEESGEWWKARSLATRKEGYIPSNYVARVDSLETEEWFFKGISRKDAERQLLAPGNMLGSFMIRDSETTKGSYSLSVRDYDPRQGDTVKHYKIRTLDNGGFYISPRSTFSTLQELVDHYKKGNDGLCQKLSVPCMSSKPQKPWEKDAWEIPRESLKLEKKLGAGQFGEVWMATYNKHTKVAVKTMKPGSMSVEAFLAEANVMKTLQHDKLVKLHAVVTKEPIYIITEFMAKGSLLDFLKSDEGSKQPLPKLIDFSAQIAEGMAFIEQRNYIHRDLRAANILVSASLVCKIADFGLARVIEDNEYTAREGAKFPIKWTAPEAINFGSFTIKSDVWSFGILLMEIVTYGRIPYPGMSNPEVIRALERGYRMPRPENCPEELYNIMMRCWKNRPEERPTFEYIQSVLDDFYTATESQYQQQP

`CC(O)=C(C#N)C(=O)Nc1cccc(C(F)(F)F)c1` [LFM-A8, α-Cyano-β-hydroxy-β-methyl-N-[3-(trifluoromethyl)phenyl]-propenamide] yielded a melting point of 182 to 184 °C. In addition, the “leukotriene C4 release from IgE/anti-IgE-stimulated human mast cells” value in series [1] is listed as “significantly inhibited”.
As to `C/C(O)=C(\C#N)C(=O)Nc1cc(Br)ccc1Br` [LFM-A13, α-Cyano-β-hydroxy-β-methyl-N-(2,5-dibromophenyl)-propenamide], the 50% inhibitory concentration (IC50) (against JAK1; in series [2] (EGFR); against HCK) was above 278 µM each time. Further, the “effect on enzymatic activity of JAK1” value on JAK1 (setting [3]) is recorded as “did not affect the enzymatic activity”. For the same compound, the “effect on enzymatic activity of EGFR” value in series [2] (setting [3]) was “did not affect the enzymatic activity”. For the same compound, the “effect on enzymatic activity of HCK” value at HCK (setting [3]) is reported as “did not affect the enzymatic activity”. Besides, the “chemosensitivity to ceramide-induced apoptosis” value with ALL-1 cells was “significantly enhanced the chemosensitivity”. For the same compound, on BTK in B18.2 cells, the “cellular BTK activity” value was “dose-dependent inhibition of cellular BTK activity”.

For the origin of these results see patent US6753348B2, “BTK inhibitors and methods for their identification and use” (Parker Hughes Institute, priority 1998, dated 2004).
